In general, EC50 refers to the midpoint of the concentration-response curve. A high value points to lower potency in that assay.

The target in the test is T1, human FXR (Homo sapiens, UniProt Q96RI1).
T1 construct: expressed in transfected cells; host or cells: HEK293 cells stably carrying a 5xGal4-response-element firefly luciferase reporter, transiently transfected with pcDNA3.1-Gal4-FXR
T1 sequence (Q96RI1 262-486 limits assumed): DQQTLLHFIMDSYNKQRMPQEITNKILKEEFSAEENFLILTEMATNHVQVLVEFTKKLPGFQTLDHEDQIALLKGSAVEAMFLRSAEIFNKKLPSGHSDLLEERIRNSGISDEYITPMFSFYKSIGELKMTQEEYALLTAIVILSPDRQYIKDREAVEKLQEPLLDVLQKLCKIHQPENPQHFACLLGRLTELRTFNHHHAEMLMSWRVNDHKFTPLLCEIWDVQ
The test is described as follows: transient human FXR/Gal4-luciferase reporter assay. It counts as cell-based. The note with it: Gal4-hFXR LBD fusion, luciferase reporter in HEK293 cells; response relative to 8 μM GW-4064. On the procedure: A Gal4-hFXR fusion construct reporter system was used as the primary assay to characterize compound activity. A construct including 5 copies of the Gal4 promoter response element upstream of a firefly luciferase reporter cDNA was stably expressed in HEK293 cells. This reporter cell line was maintained in Dulbecco's Modified Eagle's medium (DMEM; Gibco) supplemented with 1% penicillin-streptomycin (P/S) solution, 500 μg/mL Zeocin and 10% charcoal/dextran-treated fetal bovine serum (cs-FBS) at 37° C. in a humidified 5% CO2 atmosphere. […] The day prior to transfection, the reporter cells in culture are detached from the plate with trypsin and plated into a T75 flask at a sufficient density to achieve approximately 90% confluence the next morning. […] The mixture is further diluted with 10 mL of a solution comprised of DMEM, 10% cs-FBS, and 1% P/S immediately prior to transferring to the cells. The maintenance culture media is aspirated from the cells and the final transfection mixture is added before the cells are incubated overnight at 37° C. in a humidified 5% CO2 atmosphere. This protocol can be scaled up, and the transiently transfected cells can be cryopreserved in an assay-ready format. For compound testing, 100 nL of the compounds (serial dilutions in DMSO) are dispensed with an Echo acoustic dispenser (Labcyte) into the wells of a Corning/Costar clear bottom 384-well white plate. The transfected cells are harvested, counted, and diluted such that 10-25,000 cells in 25 μL are plated into each well of the 384-well compound assay plate. The compound-treated cells are incubated overnight at 37° C. in a humidified 5% CO2 atmosphere. The next morning 25 μL of Steady-Glo (Promega) are added to each well of the plate, the mixture is incubated for 15 min. with shaking, and luminescence is measured on an Envision (Perkin Elmer) plate reader.
For orientation: In a reporter assay the amount or activity of a reporter protein is the signal.
With `COCc1nc(-c2cccc(N(CC34CCC(c5nc(C6CC6)no5)(CC3)CC4)C(=O)C3CCN(C(=O)OC(C)(C)C)CC3)c2)cs1` [Example 48, tert-butyl 4-(((4-(3-cyclopropyl-1,2,4-oxadiazol-5-yl)bicyclo[2.2.2]octan-1-yl)methyl)(3-(2-(methoxymethyl)thiazol-4-yl)phenyl)carbamoyl)piperidine-1-carboxylate], a half-maximal effect (EC50) was put at 856 nM.

With `O=C(N1CCC(N2CCCCC2)CC1)N(CC12CCC(c3nc(C4CC4)no3)(CC1)CC2)c1cccc(-c2nc(C3CC3)no2)c1` [Example 64, N-((4-(3-cyclopropyl-1,2,4-oxadiazol-5-yl)bicyclo[2.2.2]octan-1-yl)methyl)-N-(3-(3-cyclopropyl-1,2,4-oxadiazol-5-yl)phenyl)-[1,4′-bipiperidine]-1′-carboxamide], the concentration for a half-maximal effect (EC50) was 4820 nM.

On to `CN1CCC(C(=O)N(CC23CCC(c4nc(C5CC5)no4)(CC2)CC3)c2cccc(-c3cnc(C4CC4)o3)c2)CC1` [Example 24, N-((4-(3-cyclopropyl-1,2,4-oxadiazol-5-yl)bicyclo[2.2.2]octan-1-yl)methyl)-N-(3-(2-cyclopropyloxazol-5-yl)phenyl)-1-methylpiperidine-4-carboxamide], for which the concentration for a half-maximal effect (EC50) worked out at 4800 nM. In turn, `O=C(C1CCOCC1)N(CC12CCC(c3nc(C4CC4)no3)(CC1)CC2)c1cccc(-c2nc(CC3CC3)no2)c1` [Example 44, N-((4-(3-cyclopropyl-1,2,4-oxadiazol-5-yl)bicyclo[2.2.2]octan-1-yl)methyl)-N-(3-(3-(cyclopropylmethyl)-1,2,4-oxadiazol-5-yl)phenyl)tetrahydro-2H-pyran-4-carboxamide] displayed an EC50 of 118 nM. For the compound `O=C(C1CCC(F)(F)CC1)N(CC12CCC(c3nc(C4CC4)no3)(CC1)CC2)c1cccc(-c2cc(C3CC3)no2)c1` [Example 151, N-((4-(3-cyclopropyl-1,2,4-oxadiazol-5-yl)bicyclo[2.2.2]octan-1-yl)methyl)-N-(3-(3-cyclopropylisoxazol-5-yl)phenyl)-4,4-difluorocyclohexane-1-carboxamide], the EC50 stood at 38 nM. Under `CC(F)(F)c1nc(C23CCC(CN(C(=O)C4CCC(O)(C(F)(F)F)CC4)c4cccc(-c5cc(C6CC6)on5)c4)(CC2)CC3)no1` (stereo not drawn) [Example 158, N-(3-(5-cyclopropylisoxazol-3-yl)phenyl)-N-((4-(5-(1,1-difluoroethyl)-1,2,4-oxadiazol-3-yl)bicyclo[2.2.2]octan-1-yl)methyl)-4-hydroxy-4-(trifluoromethyl)cyclohexane-1-carboxamide] stands 195 nM; under `CC(C)(C)c1nc(C23CCC(CN(C(=O)C4CCC(F)(F)CC4)c4cccc(-c5cc(C6CC6)no5)c4)(CC2)CC3)no1` [Example 148, N-((4-(5-(tert-butyl)-1,2,4-oxadiazol-3-yl)bicyclo[2.2.2]octan-1-yl)methyl)-N-(3-(3-cyclopropylisoxazol-5-yl)phenyl)-4,4-difluorocyclohexane-1-carboxamide], 107 nM; under `CC(F)(F)c1nc(C23CCC(CN(C(=O)C4CCS(=O)(=O)CC4)c4cccc(-c5ccc(OC(F)F)cc5)c4)(CC2)CC3)no1` [Example 110, N-((4-(5-(1,1-difluoroethyl)-1,2,4-oxadiazol-3-yl)bicyclo[2.2.2]octan-1-yl)methyl)-N-(4′-(difluoromethoxy)-[1,1′-biphenyl]-3-yl)tetrahydro-2H-thiopyran-4-carboxamide 1,1-dioxide], 467 nM. Take `CC(C)(C)c1nc(C23CCC(CN(C(=O)C4CCOCC4)c4cccc(-c5nc(C6CC6)no5)c4)(CC2)CC3)no1` [Example 116, N-((4-(5-(tert-butyl)-1,2,4-oxadiazol-3-yl)bicyclo[2.2.2]octan-1-yl)methyl)-N-(3-(3-cyclopropyl-1,2,4-oxadiazol-5-yl)phenyl)tetrahydro-2H-pyran-4-carboxamide]: a half-maximal response (EC50) required 61 nM. The figure for `Cc1noc(C23CCC(CN(C(=O)C4CCCCC4)c4cccc(-c5cnc(C6CCOCC6)o5)c4)(CC2)CC3)n1` [Example 33, N-((4-(3-methyl-1,2,4-oxadiazol-5-yl)bicyclo[2.2.2]octan-1-yl)methyl)-N-(3-(2-(tetrahydro-2H-pyran-4-yl)oxazol-5-yl)phenyl)cyclohexanecarboxamide] is 949 nM. Turning to `Cn1nc(C2CC2)cc1C12CCC(CN(C(=O)C3CCC(F)(F)CC3)c3cccc(-c4cc(C5CC5)on4)c3)(CC1)CC2` [Example 163, N-((4-(3-cyclopropyl-1-methyl-1H-pyrazol-5-yl)bicyclo[2.2.2]octan-1-yl)methyl)-N-(3-(5-cyclopropylisoxazol-3-yl)phenyl)-4,4-difluorocyclohexane-1-carboxamide], a half-maximal effect (EC50) was put at 130 nM. The figure for `CC(F)(F)c1nc(C23CCC(CN(C(=O)C4CCOCC4)c4cccc(-c5cc(C6CC6)on5)c4)(CC2)CC3)no1` [Example 156, N-(3-(5-cyclopropylisoxazol-3-yl)phenyl)-N-((4-(5-(1,1-difluoroethyl)-1,2,4-oxadiazol-3-yl)bicyclo[2.2.2]octan-1-yl)methyl)tetrahydro-2H-pyran-4-carboxamide] is 44 nM. Regarding `COC(=O)C1CC1c1cccc(N(CC23CCC(c4nc(C)no4)(CC2)CC3)C(=O)C2CCCCC2)c1` (single isomer, unassigned) [Example 102, Methyl 2-(3-(N-((4-(3-methyl-1,2,4-oxadiazol-5-yl)bicyclo[2.2.2]octan-1-yl)methyl)cyclohexanecarboxamido)phenyl)cyclopropane-1-carboxylate], the EC50 worked out at 518 nM. In turn, `CCOC(=O)c1nc(-c2cccc(N(CC34CCC(c5nc(C6CC6)no5)(CC3)CC4)C(=O)C3CCCCC3)c2)cs1` [Example 31, Ethyl 4-(3-(N-((4-(3-cyclopropyl-1,2,4-oxadiazol-5-yl)bicyclo[2.2.2]octan-1-yl)methyl)cyclohexanecarboxamido)phenyl)thiazole-2-carboxylate] displayed an EC50 of 1200 nM. In the case of `COc1cccc(-c2cccc(N(CC34CCC(c5nc(C)no5)(CC3)CC4)C(=O)C3CCCCC3)c2)c1` [Example 72, N-(3′-methoxy-[1,1′-biphenyl]-3-yl)-N-((4-(3-methyl-1,2,4-oxadiazol-5-yl)bicyclo[2.2.2]octan-1-yl)methyl)cyclohexanecarboxamide], the 50% effective concentration (EC50) was 307 nM. Take `CC(F)(F)c1nc(C23CCC(CN(C(=O)C4CCC(O)(C(F)(F)F)CC4)c4cccc(-c5cc(C6CC6)on5)c4)(CC2)CC3)no1` (stereo not drawn) [Example 157, N-(3-(5-cyclopropylisoxazol-3-yl)phenyl)-N-((4-(5-(1,1-difluoroethyl)-1,2,4-oxadiazol-3-yl)bicyclo[2.2.2]octan-1-yl)methyl)-4-hydroxy-4-(trifluoromethyl)cyclohexane-1-carboxamide]: the EC50 is 242 nM. Turning to `CN1CCC(C(=O)N(CC23CCC(c4noc(C(C)(C)C)n4)(CC2)CC3)c2cccc(-c3nc(C4CC4)no3)c2)CC1` [Example 118, N-((4-(5-(tert-butyl)-1,2,4-oxadiazol-3-yl)bicyclo[2.2.2]octan-1-yl)methyl)-N-(3-(3-cyclopropyl-1,2,4-oxadiazol-5-yl)phenyl)-1-methylpiperidine-4-carboxamide], the EC50 is 1950 nM. Compound `CCOc1cc(-c2cccc(N(CC34CCC(c5nc(C6CC6)no5)(CC3)CC4)C(=O)C3CCCCC3)c2)ccn1` [Example 78, N-((4-(3-cyclopropyl-1,2,4-oxadiazol-5-yl)bicyclo[2.2.2]octan-1-yl)methyl)-N-(3-(2-ethoxypyridin-4-yl)phenyl)cyclohexane carboxamide] yielded an EC50 of 181 nM. Under `CCc1noc(-c2cccc(N(CC34CCC(c5nc(C)no5)(CC3)CC4)C(=O)C3CCCCC3)c2)n1` [Example 3] stands 158 nM; under `CCn1cc(-c2cccc(N(CC34CCC(c5nc(C6CC6)no5)(CC3)CC4)C(=O)C3CCOCC3)c2)oc1=O` [Example 51, N-((4-(3-cyclopropyl-1,2,4-oxadiazol-5-yl)bicyclo[2.2.2]octan-1-yl)methyl)-N-(3-(3-ethyl-2-oxo-2,3-dihydrooxazol-5-yl)phenyl)tetrahydro-2H-pyran-4-carboxamide], 1190 nM. Regarding `CCOc1cc(-c2cccc(N(CC34CCC(c5nc(C6CC6)no5)(CC3)CC4)C(=O)C3CCCCC3)c2)no1` [Example 27, N-((4-(3-cyclopropyl-1,2,4-oxadiazol-5-yl)bicyclo[2.2.2]octan-1-yl)methyl)-N-(3-(5-ethoxyisoxazol-3-yl)phenyl)cyclohexanecarboxamide], the EC50 worked out at 75 nM.

Values taken from patent US12227496B2 (BRISTOL-MYERS SQUIBB COMPANY, priority 2019, dated 2025).
